From US5192786A, “Substituted biphenylalkoxyamines” (Ortho Pharmaceutical Corporation, priority 1990, dated 1993)
In brackets after ≈: the same amount, converted by molar mass. Counter-ions that a name gives are not always drawn. Like-named read-outs stand apart in the source and are kept apart here.

What was measured:
[1] = system: histamine stimulated parietal cell; assay: Isolated parietal cell assay, inhibition of 14C-aminopyrine accumulation, histamine stimulated; type: cell-based, rabbit; details: Oryctolagus cuniculus, 20 min, read-out: Isolated Parietal Cells IC50 vs his
Method: (§1) The isolated parietal cell assay was conducted using the procedures of Batzri, S. et al., Biochemica et Biophysica Acta 508, 328 (1978) and Soll, A.H. Am. J. Physiol. 238, G366 (1980). Basically, parietal cells were isolated from the fundic mucosa of rabbit stomachs by a four-stage collagenase digestion process. The supernatant fractions from the last two stages of this process contain the individual parietal cells. This cell suspension was centrifuged and reconstituted in a modified Hank's buffer to contain 1-2×10^6 cells/ml. […] This accumulation was stimulated by histamine and was blocked by H2 antagonists. The cells were incubated with 0.4-0.5×10^6 cpm ^14 C-AP, with various concentrations of histamine as a stimulant, 1×10^-5 M isobutylmethylxanthine, and the test compound added in a 20 μl volume of buffer or DMSO. The flasks were incubated in a shaking water bath at 37° C. for 20 minutes. Two aliquots were then taken from each flask and cell pellets were collected by centrifugation. The pellets were solubilized with Protosol (New England Nuclear) and radioactivity determined by liquid scintillation spectrometry. Data are presented as the IC50 vs hist, the concentration of compound required to inhibit ^14 C-AP accumulation in the histamine stimulated parietal cell by 50%.

[2] = system: cAMP stimulated parietal cell; assay: Isolated parietal cell assay, inhibition of 14C-aminopyrine accumulation, dibutyryl cAMP stimulated; type: cell-based, rabbit; details: Oryctolagus cuniculus, 20 min, read-out: Isolated Parietal Cells IC50 vs cAMP
Method: as §1
When dibutyryl cAMP was used to stimulate the cells instead of histamine, a similar inhibition of ^14 C-AP accumulation was measured and the data are presented as the IC50 vs cAMP, the concentration of compound required to inhibit ^14 C-AP accumulation in the cAMP stimulated parietal cell by 50%.

[3] = system: Candida albicans; assay: In vitro antimicrobial activity, minimal inhibitory concentration (agar dilution), Candida albicans; type: cell-based, Candida albicans ATC 10231; details: read-out: Minimal inhibitory concentration, Candida albicans
Method: (§2) A 0.5 mg/ml stock solution of each Example compound was prepared in an appropriate solvent. From this stock, dilutions were prepared in solvent, and 0.2 ml aliquots of the stock and dilutions were added to tubes containing 19.8 ml of Mueller Hinton agar (46°-50° C.). The mixtures were poured into 100 by 15 mm petri dishes and allowed to solidify.
(§3) The test organisms (Candida albicans ATC 10231 and Trichophyton mentagrophytes ATC 22839) were diluted from frozen stock cultures. Inocula were diluted with sterile solution containing 0.1% peptone in water to contain approximately 2×10^5 […] (CFUs) per ml. Plate counts were performed on 1 mL of all inocula.
(§4) Each plate and unadulterated agar growth control was inoculated with the inocula prepared above using a Steer's Replicator method. Plates were then incubated at 32° C. Observations for growth were made at 48 hours.
(§5) The results of this test are reported below in Table 1 as compared to the known antifungal agents, miconazole nitrate and terconazole.

[4] = system: Trichophyton mentagrophytes; assay: In vitro antimicrobial activity, minimal inhibitory concentration (agar dilution), Trichophyton mentagrophytes; type: cell-based, Trichophyton mentagrophytes ATC 22839; details: Mueller Hinton agar, 32° C., 48 hours, complete inhibition of growth
Method: as §2, §3, §4, §5

[5] = In vivo anticonvulsant activity, Antielectroshock; set-up: species or system Male CD1 mice; key: +: Active; ±: Active, but weak; -: Inactive at this dose; details: p.o.; for Anticonvulsant profile, Antielectroshock (10): 10 mg/kg; for Anticonvulsant profile, Antielectroshock (100): 100 mg/kg
[6] = In vivo anticonvulsant activity, Antimetrazol (pentylenetetrazol-induced convulsions); set-up: species or system Male CD1 mice; key: +: Active; ±: Active, but weak; -: Inactive at this dose; details: p.o., 125 mg/kg pentylenetetrazol s.c. challenge; for Anticonvulsant profile, Antimetrazol (10): 10 mg/kg; for Anticonvulsant profile, Antimetrazol (100): 100 mg/kg
Method: Male CD1 mice, fasted at least 16 hours, were divided into groups of 10 and test compounds or vehicle were administered orally by gavage. The vehicle used was 0.5% aqueous methylcellulose solution containing 0.4% (v/v) of Tween 80. One hour later (or at time of suspected peak activity), the mice were challenged with 125 mg/kg of pentylenetetrazol, administered subcutaneously. Pentylenetetrazol was dissolved in 0.9% sodium chloride solution, and the dosage volume for administration of test compounds or the convulsant challenge was 10 ml/kg. Animals were housed individually for observation of convulsions for a period of 30 minutes.
Pentylenetetrazol-induced convulsions in vehicle-treated mice consist of mixed-clonic/tonic seizures. Tonic hindlimb extension and death are terminal consequences. Test compounds that block the hindlimb tonic extensor component of the convulsions in at least 50% of treated mice were considered active. ED50 values of active compounds may be calculated by the method of probits (Finney, 1971).

[7] = In vivo antisecretory activity, gastric secretion in pylorus ligated rats (acid output); set-up: species or system male Charles River Sprague Dawley derived rats; details: Rattus norvegicus, 4 h; 20 mpk, po; four hours after ligation; read-out: Pylorous Ligated Rats, effect on acid output compared to control
[8] = General CNS Behavior; type: in vivo, Male CD1 mice; details: 100 mg/kg, p.o.
[9] = Mueller Hinton agar, 32° C., 48 hours, complete inhibition of growth
[10] = histamine stimulated, 14C-aminopyrine accumulation, 37° C., 20 minutes
[11] = dibutyryl cAMP stimulated, 14C-aminopyrine accumulation, 37° C., 20 minutes

Structure (SMILES)	IC50 [1] [nM]	IC50 [2] [nM]	MIC [3, 9] [µg/mL]	MIC [4] [µg/mL]	IC50 [1, 10] [nM]	IC50 [2, 11] [nM]	Anticonvulsant profile, Antielectroshock (10) [5]	Anticonvulsant profile, Antielectroshock (100) [5]	Anticonvulsant profile, Antimetrazol (10) [6]	Anticonvulsant profile, Antimetrazol (100) [6]	change in vivo at 20 mg/kg [7] [%]	MIC ([3]; 48 h) [µg/mL]	General CNS Behavior [8]
CN/C(=N/CCSCc1nc[nH]c1C)NC#N [Cimetidine, cimetidine, reference compound]	820	> 100000											
CC(C)N1CCN(c2ccc(OCC3COC(Cn4cncn4)(c4ccc(Cl)cc4Cl)O3)cc2)CC1 (stereo not drawn) [Terconazole, terconazole, reference compound]			0.1 (≈ 0.188 µM)	50 (≈ 93.9 µM)									
c1ccc(-c2ccc(OCCCCCn3cncn3)cc2)cc1 [Example 10, hydrochloride]			> 50	10	< 10000	< 10000							
C(=C\c1ccc(OCCCn2ccnc2)cc1)/c1ccccc1.Cl [Example 2, (E)-4-(1H-Imidazol-1-yl)propoxystilbene hydrochloride]			> 50	10	160	270	-	+	-	+	-4		
Clc1ccc(COC(Cn2ccnc2)c2ccc(Cl)cc2Cl)c(Cl)c1 (stereo not drawn) [Miconazole Nitrate, miconazole nitrate, reference compound]				5								1	
Cl.c1ccc(-c2ccc(OCCCCCn3ccnc3)cc2)cc1 [Example 9, 1-(1H-Imidazol-1-ylpentoxy)-4-phenylbenzene hydrochloride]			50	10	90	110	-				-54		
C(=C\c1ccc(OCCCCn2ccnc2)cc1)/c1ccccc1 [Example 1, hydrochloride]			> 50	50	450	450		-		-	-32		
Cl.O=C(c1ccc(Cl)cc1)c1ccc(OCCCn2ccnc2)cc1 [Example 11, 4'-Chloro-4-(1H-imidazol-1-ylpropoxy) benzophenone hydrochloride]			> 50	1	280	280		-		-	-35		
CCCN(CCC)CCCCOc1ccc(-c2ccccc2)cc1.Cl [Example 7, 1-(Dipropylaminobutoxy)-4-phenylbenzene hydrochloride]			50	1	120	260	-	±	-	±	-45		
CCCN(CCC)CCCOc1ccc(/C=C/c2cccc(OC)c2)cc1 [Example 3, (E)-3'-Methoxy-4-dipropylamino-propoxystilbene hydrochloride]			50	50	100	110		-	-	+	-92		
c1ccc(Cc2ccc(OCCCn3ccnc3)cc2)cc1 [Example 12, 1-[4-(1H-Imidazol-1-ylpropoxyphenyl)-1-phenylmethane hydrochloride]			50	10	140	300	-	+	-	+	-51		Mod CNS Depr
CNC(=C[N+](=O)[O-])NCCSCc1ccc(CN(C)C)o1 [Ranitidine, ranitidine, reference compound]					40	> 100000							
Clc1cccc(/C=C/c2ccc(OCCCCn3ccnc3)cc2)c1 [Example 5, hydrochloride]			> 50	> 50	180	100					-12		
Cl.c1ccc(-c2ccc(OCCCCn3ccnc3)cc2)cc1 [Example 6, 1-(1H-Imidazol-1-ylbutoxy)-4-phenylbenzene hydrochloride]			1	1	170	160	-	±	-	±	-24		Wk CNS Depr
Cl.c1ccc(-c2ccc(OCCCn3ccnc3)cc2)cc1 [Example 8, 1-(1H-Imidazol-1-ylpropoxy)-4-phenylbenzene hydrochloride]			1	1	230	320	-	±	-	±	-33		Wk CNS Depr
